Test system: MV-4-11 cells
Test: Gene expression microarray analysis (Affymetrix PrimeView) and GSEA
Format: cell-based, human
Parameters: RFU PODN (11730768_x_at) / Fold change /veh PODN (11730768_x_at) / RFU LINC00158 (11744669_a_at) / Fold change /veh LINC00158 (11744669_a_at) / RFU DUSP10 (11751237_a_at) / Fold change /veh DUSP10 (11751237_a_at) / RFU ID3 (11757404_x_at) / Fold change /veh ID3 (11757404_x_at) / RFU PLEKHG5 (11737974_s_at) / Fold change /veh PLEKHG5 (11737974_s_at) / RFU LRRC4B (11730491_at) / Fold change /veh LRRC4B (11730491_at) / RFU GIMAP4 (11747438_a_at) / Fold change /veh GIMAP4 (11747438_a_at) / RFU KRT8 (11758183_x_at) / Fold change /veh KRT8 (11758183_x_at) / RFU CNN1 (11734310_a_at) / Fold change /veh CNN1 (11734310_a_at) / RFU VPS37D (11726825_at) / Fold change /veh VPS37D (11726825_at) / RFU C10orf10 (11716522_x_at) / Fold change /veh C10orf10 (11716522_x_at) / RFU KIR2DL2 /// KIR2DL4 /// KIR2DL5A /// KIR2DL5B /// KIR2DS1 /// KIR2DS2 /// KIR2DS3 /// KIR2DS4 /// KIR3DL3 /// KIR3DL3 /// KIR3DS1 (11738374_at) / Fold change /veh KIR2DL2 /// KIR2DL4 /// KIR2DL5A /// KIR2DL5B /// KIR2DS1 /// KIR2DS2 /// KIR2DS3 /// KIR2DS4 /// KIR3DL3 /// KIR3DL3 /// KIR3DS1 (11738374_at) / RFU C1QL1 (11718748_at) / Fold change /veh C1QL1 (11718748_at) / RFU TMPRSS4 (11747572_a_at) / Fold change /veh TMPRSS4 (11747572_a_at) / RFU HAMP (11756126_x_at) / Fold change /veh HAMP (11756126_x_at) / RFU RNFT2 (11725882_a_at) / Fold change /veh RNFT2 (11725882_a_at) / RFU NR4A2 (11747474_a_at) / Fold change /veh NR4A2 (11747474_a_at) / RFU ABCC12 (11746883_a_at) / Fold change /veh ABCC12 (11746883_a_at) / RFU TMEM136 (11760407_x_at) / Fold change /veh TMEM136 (11760407_x_at) / RFU CLDN22 /// WWC2 (11732394_at) / Fold change /veh CLDN22 /// WWC2 (11732394_at) / RFU HLA-DPB1 (11760878_x_at) / Fold change /veh HLA-DPB1 (11760878_x_at) / RFU SPINT1 (11716480_a_at) / Fold change /veh SPINT1 (11716480_a_at) / RFU GAP43 (11754022_s_at) / Fold change /veh GAP43 (11754022_s_at) / RFU A4GNT (11735810_at) / Fold change /veh A4GNT (11735810_at) / RFU PRB3 (11715151_x_at) / Fold change /veh PRB3 (11715151_x_at) / RFU TUBB4B (11761932_at) / Fold change /veh TUBB4B (11761932_at) / RFU CAPN14 (11732068_a_at) / Fold change /veh CAPN14 (11732068_a_at) / RFU TMCC2 (11721928_a_at) / Fold change /veh TMCC2 (11721928_a_at) / RFU IRGQ (11745062_a_at) / Fold change /veh IRGQ (11745062_a_at) / RFU FAM174B (11720279_a_at) / Fold change /veh FAM174B (11720279_a_at) / RFU TMPRSS4 (11748680_a_at) / Fold change /veh TMPRSS4 (11748680_a_at) / RFU FAM212B (11763350_a_at) / Fold change /veh FAM212B (11763350_a_at) / RFU PLEKHG5 (11743358_a_at) / Fold change /veh PLEKHG5 (11743358_a_at) / RFU ZSCAN30 (11745921_a_at) / Fold change /veh ZSCAN30 (11745921_a_at) / RFU CMKLR1 (11741424_a_at) / Fold change /veh CMKLR1 (11741424_a_at) / RFU LOC101060620 /// MAPK8IP1 (11723275_at) / Fold change /veh LOC101060620 /// MAPK8IP1 (11723275_at) / RFU SPTSSB (11747773_x_at) / Fold change /veh SPTSSB (11747773_x_at) / RFU PRSS12 (11739890_at) / Fold change /veh PRSS12 (11739890_at) / RFU BIN1 (11741810_x_at) / Fold change /veh BIN1 (11741810_x_at) / RFU WNT11 (11732464_a_at) / Fold change /veh WNT11 (11732464_a_at) / RFU C10orf10 (11716521_a_at) / Fold change /veh C10orf10 (11716521_a_at) / RFU C5orf56 (11738089_at) / Fold change /veh C5orf56 (11738089_at) / RFU CYB561 (11721691_x_at) / Fold change /veh CYB561 (11721691_x_at) / RFU ANKRD19P (11752326_a_at) / Fold change /veh ANKRD19P (11752326_a_at) / RFU OR2T12 /// OR2T33 /// OR2T8 (11738714_s_at) / Fold change /veh OR2T12 /// OR2T33 /// OR2T8 (11738714_s_at) / RFU VCAN (11748164_a_at) / Fold change /veh VCAN (11748164_a_at) / RFU JSRP1 (11732532_at) / Fold change /veh JSRP1 (11732532_at) / RFU KRTAP10-11 (11738290_x_at) / Fold change /veh KRTAP10-11 (11738290_x_at) / RFU MYO3A (11730013_a_at) / Fold change /veh MYO3A (11730013_a_at) / RFU EBF3 (11725865_a_at) / Fold change /veh EBF3 (11725865_a_at) / RFU CAMK2N1 (11719241_x_at) / Fold change /veh CAMK2N1 (11719241_x_at) / RFU C5orf56 (11738088_a_at) / Fold change /veh C5orf56 (11738088_a_at) / RFU OLFML3 (11715873_a_at) / Fold change /veh OLFML3 (11715873_a_at) / RFU LOC100653217 /// NTM (11731650_a_at) / Fold change /veh LOC100653217 /// NTM (11731650_a_at) / RFU MAPK11 (11762145_a_at) / Fold change /veh MAPK11 (11762145_a_at) / RFU FIZ1 (11724087_x_at) / Fold change /veh FIZ1 (11724087_x_at) / RFU OASL (11726364_x_at) / Fold change /veh OASL (11726364_x_at) / RFU SOX15 (11748057_x_at) / Fold change /veh SOX15 (11748057_x_at) / RFU CD79A (11719716_a_at) / Fold change /veh CD79A (11719716_a_at) / RFU HIST1H1D (11736915_at) / Fold change /veh HIST1H1D (11736915_at) / RFU CASKIN2 (11723855_a_at) / Fold change /veh CASKIN2 (11723855_a_at) / RFU LOC730098 (11760151_x_at) / Fold change /veh LOC730098 (11760151_x_at) / RFU OR4N2 (11742367_at) / Fold change /veh OR4N2 (11742367_at) / RFU PRRT2 (11749266_a_at) / Fold change /veh PRRT2 (11749266_a_at) / RFU SNX32 (11753110_a_at) / Fold change /veh SNX32 (11753110_a_at) / RFU CDHR5 (11726645_a_at) / Fold change /veh CDHR5 (11726645_a_at) / RFU RCAN1 (11760418_a_at) / Fold change /veh RCAN1 (11760418_a_at) / RFU FAM167A (11723789_a_at) / Fold change /veh FAM167A (11723789_a_at) / RFU FAM26E (11764081_at) / Fold change /veh FAM26E (11764081_at) / RFU ISYNA1 (11749810_s_at) / Fold change /veh ISYNA1 (11749810_s_at) / RFU ACY1 (11761880_at) / Fold change /veh ACY1 (11761880_at) / RFU 11764098_at / Fold change /veh 11764098_at / RFU SAMD14 (11745864_x_at) / Fold change /veh SAMD14 (11745864_x_at) / RFU NPB (11741838_a_at) / Fold change /veh NPB (11741838_a_at) / RFU TMPRSS6 (11731388_a_at) / Fold change /veh TMPRSS6 (11731388_a_at) / RFU KRTAP10-2 (11738614_at) / Fold change /veh KRTAP10-2 (11738614_at) / RFU ARHGAP8 /// PRR5-ARHGAP8 (11727945_x_at) / Fold change /veh ARHGAP8 /// PRR5-ARHGAP8 (11727945_x_at) / RFU KRTAP5-7 /// NADSYN1 (11734609_at) / Fold change /veh KRTAP5-7 /// NADSYN1 (11734609_at) / RFU RASL12 (11751679_a_at) / Fold change /veh RASL12 (11751679_a_at) / RFU CDKN2B (11736163_a_at) / Fold change /veh CDKN2B (11736163_a_at) / RFU PRF1 (11729649_at) / Fold change /veh PRF1 (11729649_at) / RFU, ZNF638 /// ZNF638-IT1 / Fold change vs veh, ZNF638 /// ZNF638-IT1 / RFU, PANK3 / Fold change vs veh, PANK3 / RFU, SH3YL1 / Fold change vs veh, SH3YL1 / RFU, ZEB2 / Fold change vs veh, ZEB2 / RFU, NRIP1 / Fold change vs veh, NRIP1 / RFU, PTTG1IP / Fold change vs veh, PTTG1IP / RFU, CAPN2 / Fold change vs veh, CAPN2 / RFU, MED14 / Fold change vs veh, MED14 / RFU, SNORA58 / Fold change vs veh, SNORA58 / RFU, C1orf63 / Fold change vs veh, C1orf63 / RFU, LRRFIP1 / Fold change vs veh, LRRFIP1 / RFU, NDUFAF7 / Fold change vs veh, NDUFAF7 / RFU, SLC12A2 / Fold change vs veh, SLC12A2 / RFU, IBTK / Fold change vs veh, IBTK / RFU, ESF1 / Fold change vs veh, ESF1 / Fold change vs veh, TMEM50B / RFU, TAOK1 / Fold change vs veh, TAOK1 / RFU, ACBD3 / Fold change vs veh, ACBD3 / RFU, TMA16 / Fold change vs veh, TMA16 / RFU, RWDD3 / Fold change vs veh, RWDD3 / RFU, BCAT1 / Fold change vs veh, BCAT1 / RFU, EDEM3 / Fold change vs veh, EDEM3 / RFU, TMEM33 / Fold change vs veh, TMEM33 / RFU, WDR75 / Fold change vs veh, WDR75 / RFU, AHCTF1 / Fold change vs veh, AHCTF1 / RFU, TFRC / Fold change vs veh, TFRC / RFU, ZDHHC17 / Fold change vs veh, ZDHHC17 / RFU, NOM1 / Fold change vs veh, NOM1 / RFU, ARL8B / Fold change vs veh, ARL8B / RFU, ZBTB11 / Fold change vs veh, ZBTB11 / RFU, TAMM41 / Fold change vs veh, TAMM41 / RFU, KIAA1704 /// LOC100996395 / Fold change vs veh, KIAA1704 /// LOC100996395 / RFU, ING1 / Fold change vs veh, ING1 / RFU, TRMT61B / Fold change vs veh, TRMT61B / RFU, FUBP3 / Fold change vs veh, FUBP3 / RFU, TP53 / Fold change vs veh, TP53 / RFU, TNKS2 / Fold change vs veh, TNKS2 / RFU, ZFP14 / Fold change vs veh, ZFP14 / RFU, ACTR2 / Fold change vs veh, ACTR2 / RFU, PPP3R1 / Fold change vs veh, PPP3R1 / RFU, PIK3R1 / Fold change vs veh, PIK3R1 / RFU, HNRNPA1 / Fold change vs veh, HNRNPA1 / RFU, RNF170 / Fold change vs veh, RNF170 / RFU, ZNF28 / Fold change vs veh, ZNF28 / RFU, RNGTT / Fold change vs veh, RNGTT / RFU, OGT / Fold change vs veh, OGT / RFU, BRD1 / Fold change vs veh, BRD1 / RFU, MARS / Fold change vs veh, MARS / RFU, ZNF655 / Fold change vs veh, ZNF655 / RFU, FAHD1 / Fold change vs veh, FAHD1 / RFU, BDP1 / Fold change vs veh, BDP1 / RFU, LRRCC1 / Fold change vs veh, LRRCC1 / RFU, ARID1A / Fold change vs veh, ARID1A / RFU, ZNF146 / Fold change vs veh, ZNF146 / RFU, ZNF330 / Fold change vs veh, ZNF330 / RFU, GPN3 / Fold change vs veh, GPN3 / RFU, C9orf123 / Fold change vs veh, C9orf123 / RFU, N4BP2L2 / Fold change vs veh, N4BP2L2 / RFU, ARFIP1 / Fold change vs veh, ARFIP1 / RFU, FAM179B / Fold change vs veh, FAM179B / RFU, BCL10 / Fold change vs veh, BCL10 / RFU, UHRF1BP1L / Fold change vs veh, UHRF1BP1L / RFU, BET1 / Fold change vs veh, BET1 / RFU, CNOT2 / Fold change vs veh, CNOT2 / RFU, ZNF268 / Fold change vs veh, ZNF268 / Fold change vs veh, ZNF507 / RFU, DGCR2 / Fold change vs veh, DGCR2 / RFU, WDSUB1 / Fold change vs veh, WDSUB1 / Fold change vs veh, HSP90B1 /// MIR3652 / RFU, ADSS / Fold change vs veh, ADSS / RFU, GK / Fold change vs veh, GK / RFU, ZNF148 / Fold change vs veh, ZNF148 / RFU, TAF9 / Fold change vs veh, TAF9 / RFU, SLC1A5 / Fold change vs veh, SLC1A5 / RFU, SLMO2 / Fold change vs veh, SLMO2 / RFU, ABCC4 / Fold change vs veh, ABCC4 / RFU, LOC101060439 /// RAP1B / Fold change vs veh, LOC101060439 /// RAP1B / RFU, RFX7 / Fold change vs veh, RFX7 / RFU, GTPBP10 / Fold change vs veh, GTPBP10 / RFU, CNEP1R1 / Fold change vs veh, CNEP1R1 / RFU, BIVM-ERCC5 /// ERCC5 / Fold change vs veh, BIVM-ERCC5 /// ERCC5 / RFU, ILF3 / Fold change vs veh, ILF3 / RFU 11762660_at / Fold change /veh 11762660_at / RFU VCAN (11757783_s_at) / Fold change /veh VCAN (11757783_s_at) / RFU DDX43 (11728927_at) / Fold change /veh DDX43 (11728927_at) / RFU KRT8 (11758188_x_at) / Fold change /veh KRT8 (11758188_x_at) / RFU NKD1 (11759106_at) / Fold change /veh NKD1 (11759106_at) / RFU SRD5A1 (11742802_a_at) / Fold change /veh SRD5A1 (11742802_a_at) / RFU TPSAB1 /// TPSB2 (11721975_s_at) / Fold change /veh TPSAB1 /// TPSB2 (11721975_s_at) / RFU GSTM3 (11746129_a_at) / Fold change /veh GSTM3 (11746129_a_at) / RFU IL23R (11737362_x_at) / Fold change /veh IL23R (11737362_x_at) / RFU TMEM51 (11727254_a_at) / Fold change /veh TMEM51 (11727254_a_at) / RFU PIWIL2 (11732686_x_at) / Fold change /veh PIWIL2 (11732686_x_at) / RFU ORM1 (11744905_x_at) / Fold change /veh ORM1 (11744905_x_at) / RFU CCDC152 (11743942_at) / Fold change /veh CCDC152 (11743942_at) / RFU ECM1 (11717891_a_at) / Fold change /veh ECM1 (11717891_a_at) / RFU IL23R (11748794_a_at) / Fold change /veh IL23R (11748794_a_at) / RFU TNFAIP8L3 (11732012_x_at) / Fold change /veh TNFAIP8L3 (11732012_x_at) / RFU MBOAT4 (11741988_at) / Fold change /veh MBOAT4 (11741988_at) / RFU 11764193_at / Fold change /veh 11764193_at / RFU TMEM53 (11763286_at) / Fold change /veh TMEM53 (11763286_at) / RFU MAGEB2 (11727129_at) / Fold change /veh MAGEB2 (11727129_at) / RFU TMEM200A (11744735_a_at) / Fold change /veh TMEM200A (11744735_a_at) / RFU CCDC152 (11751479_a_at) / Fold change /veh CCDC152 (11751479_a_at) / RFU FAM211A (11726209_a_at) / Fold change /veh FAM211A (11726209_a_at) / RFU RGS16 (11746705_a_at) / Fold change /veh RGS16 (11746705_a_at) / RFU VCAN (11755009_s_at) / Fold change /veh VCAN (11755009_s_at) / RFU RHOB (11743442_s_at) / Fold change /veh RHOB (11743442_s_at) / RFU RGS16 (11720943_a_at) / Fold change /veh RGS16 (11720943_a_at) / RFU RGS16 (11720944_at) / Fold change /veh RGS16 (11720944_at) / RFU, VPS4B / Fold change vs veh, VPS4B / RFU, CREB1 / Fold change vs veh, CREB1 / RFU, DNAJC13 / Fold change vs veh, DNAJC13 / RFU, GNAQ / Fold change vs veh, GNAQ / RFU, CDK5R1 / Fold change vs veh, CDK5R1 / RFU, ZRANB3 / Fold change vs veh, ZRANB3 / RFU, CUL4A / Fold change vs veh, CUL4A / RFU, CCNY / Fold change vs veh, CCNY / RFU, UFL1 / Fold change vs veh, UFL1 / RFU, COG3 / Fold change vs veh, COG3 / RFU, DIAPH2 / Fold change vs veh, DIAPH2 / RFU, SKA2 / Fold change vs veh, SKA2 / RFU, AFF3 / Fold change vs veh, AFF3 / RFU, LMF1 / Fold change vs veh, LMF1 / RFU, IPO11 / Fold change vs veh, IPO11 / RFU, DFFB / Fold change vs veh, DFFB / RFU, FOXP1 / Fold change vs veh, FOXP1 / RFU, CARD8 / Fold change vs veh, CARD8 / RFU, STRN3 / Fold change vs veh, STRN3 / RFU, ADK / Fold change vs veh, ADK / RFU, RASSF2 / Fold change vs veh, RASSF2 / RFU, WIPF1 / Fold change vs veh, WIPF1 / RFU, LARP1B / Fold change vs veh, LARP1B / RFU, RASA1 / Fold change vs veh, RASA1 / RFU, RB1 / Fold change vs veh, RB1 / RFU, PPFIA1 / Fold change vs veh, PPFIA1 / RFU, MAT2A / Fold change vs veh, MAT2A / RFU, CCT5 / Fold change vs veh, CCT5 / RFU, WDR92 / Fold change vs veh, WDR92 / RFU, CUX1 / Fold change vs veh, CUX1 / RFU, TTC7A / Fold change vs veh, TTC7A / RFU, TMEM135 / Fold change vs veh, TMEM135 / RFU, DEPTOR / Fold change vs veh, DEPTOR / RFU, CPM / Fold change vs veh, CPM / RFU, DNAJB6 / Fold change vs veh, DNAJB6 / RFU, CACNA2D3 / Fold change vs veh, CACNA2D3 / RFU, DTX4 / Fold change vs veh, DTX4 / RFU, TFCP2 / Fold change vs veh, TFCP2 / RFU, GMCL1 /// GMCL1P1 / Fold change vs veh, GMCL1 /// GMCL1P1 / RFU, AEBP2 / Fold change vs veh, AEBP2 / RFU, SNHG1 /// SNORD22 /// SNORD25 /// SNORD26 /// SNORD27 /// SNORD28 /// SNORD29 /// SNORD31 / Fold change vs veh, SNHG1 /// SNORD22 /// SNORD25 /// SNORD26 /// SNORD27 /// SNORD28 /// SNORD29 /// SNORD31 / Fold change (Aza/veh), C12orf56 (ProbeSet 11735607_a_at) / Fold change (ACY-1035/veh), C12orf56 (ProbeSet 11735607_a_at) / Fold change (Aza/veh), FGFR1OP (ProbeSet 11751329_s_at) / Fold change (ACY-1035/veh), FGFR1OP (ProbeSet 11751329_s_at) / Fold change (Aza/veh), VPS36 (ProbeSet 11739960_a_at) / Fold change (ACY-1035/veh), VPS36 (ProbeSet 11739960_a_at) / RFU SYPL1 (11715823_x_at) / Fold change /veh SYPL1 (11715823_x_at) / RFU IGFBP7 (11715501_s_at) / Fold change /veh IGFBP7 (11715501_s_at) / RFU REEP3 (11722064_at) / Fold change /veh REEP3 (11722064_at) / RFU IGLL1 (11728026_x_at) / Fold change /veh IGLL1 (11728026_x_at): dose or concentration left out as unconfirmed
Details: MV-4-11 cells, 48 hours

For `Nc1ncn([C@@H]2O[C@H](CO)[C@@H](O)[C@H]2O)c(=O)n1` [azacitidine], the “RFU ID3 (11757404_x_at)” value was 51.53 RFU.

— PMC5218480 (PLoS ONE, 2017)
